Experimental findings from ChEMBL document CHEMBL1201862, “PubChem BioAssay data set” (2004) are described below.

Some test systems named below: A498; A549; ACHN; CCRF-CEM; DU-145; HOP-62; MDA-MB-231; Malme-3M; NCI-H226; NCI-H460; NCI-H522; NCI/ADR-RES; OVCAR-3; OVCAR-5; OVCAR-8; SK-MEL-28; SNB-19; SR; TK-10; U-251.
Experiment in all cases: inhibition of tumour cell growth, NCI panel, 48 h

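Five compound concentrations were applied to cells in 96-well plates for 48 hours; endpoints were derived by simple linear interpolation of the resulting dose-response curve. GI50 is the concentration that inhibits growth by half.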 Active and inactive are the calls of the source. No stated cut-off is given here; in the data, active = GI50 up to about 1.1 µM and inactive = higher. Where only a bound is given, the exact number is not on record here.

Take `CC(=O)C(C(c1ccccc1)N1CCOCC1)N1CCOCC1` (configuration not stated): the GI50 in the assay with A498 was > 100 µM (inactive); in the assay with A549, > 100 µM (inactive); in the assay on ACHN it was > 100 µM (inactive); in the assay on CCRF-CEM, 16.9 µM (inactive); with DU-145, > 100 µM (inactive); in the assay on HOP-62 it was > 100 µM (inactive). Moreover, the GI50 in the assay with MDA-MB-231 was > 100 µM (inactive); with Malme-3M it was > 100 µM (inactive); in the assay with NCI-H226 it was > 100 µM (inactive); in the assay with NCI-H460 it was 19.2 µM (inactive); in the assay on NCI-H522, > 100 µM (inactive); with NCI/ADR-RES, > 100 µM (inactive). Moreover, the GI50 in the assay with OVCAR-3 is > 100 µM (inactive); in the assay with OVCAR-5 it was > 100 µM (inactive); with OVCAR-8, > 100 µM (inactive); with SK-MEL-28, > 100 µM (inactive); with SNB-19 it was > 100 µM (inactive); in the assay with SR, 83.9 µM (inactive). Besides, the GI50 with TK-10 is 22.6 µM (inactive); with U-251, > 100 µM (inactive).
`COc1cc(C2c3cc4c(cc3OC(NNC(N)=O)C2C)OCO4)cc(OC)c1O` (configuration not stated): the GI50 with A498 was 3.41 µM (inactive); in the assay with A549 it was 3.45 µM (inactive); in the assay on ACHN, 5.93 µM (inactive); in the assay with CCRF-CEM, 2.5 µM (inactive); in the assay on DU-145 it was 3.96 µM (inactive); in the assay on HOP-62, 5.48 µM (inactive). The GI50 was 5.05 µM (inactive) in the assay with MDA-MB-231; 0.615 µM (active) in the assay on Malme-3M; 6.65 µM (inactive) in the assay with NCI-H226; 2.12 µM (inactive) with NCI-H460; 0.285 µM (active) in the assay with NCI-H522; 21.3 µM (inactive) in the assay on NCI/ADR-RES. Besides, the GI50 in the assay on OVCAR-3 is 1.03 µM (active); in the assay on OVCAR-5, 6.59 µM (inactive); with OVCAR-8, 4.5 µM (inactive); in the assay on SK-MEL-28, 27.4 µM (inactive); with SNB-19, 7.29 µM (inactive); with SR, 1.12 µM (active). For the same compound, the GI50 is 13.8 µM (inactive) in the assay with TK-10 and 2.1 µM (inactive) with U-251.
Turning to `COC(=O)[C@@H]1C=CCN1S(=O)(=O)c1ccc(C)cc1`, the GI50 was > 100 µM (inactive) with A498; > 100 µM (inactive) in the assay on A549; > 100 µM (inactive) with ACHN; 21.8 µM (inactive) in the assay with CCRF-CEM; > 100 µM (inactive) in the assay on DU-145; > 100 µM (inactive) in the assay on HOP-62. The GI50 with MDA-MB-231 is > 100 µM (inactive); with Malme-3M, 71.6 µM (inactive); in the assay on NCI-H226, > 100 µM (inactive); with NCI-H460, 42.5 µM (inactive); in the assay on NCI-H522, 98.4 µM (inactive); in the assay with NCI/ADR-RES, > 100 µM (inactive). The GI50 in the assay on OVCAR-3 was 50.8 µM (inactive); in the assay on OVCAR-5 it was > 100 µM (inactive); with OVCAR-8, > 100 µM (inactive); in the assay on SK-MEL-28 it was 93.1 µM (inactive); with SNB-19 it was > 100 µM (inactive); in the assay on SR, 20.5 µM (inactive). Further, the GI50 with TK-10 is > 100 µM (inactive); with U-251, 31.1 µM (inactive).
On to `C=C1C(=O)O[C@H]2C/C(C)=C/CC/C(C)=C/CC[C@@](C)(O)[C@@H](I)C[C@@H]12`, for which the GI50 in the assay with A498 is 17.7 µM (inactive); in the assay with A549 it was 11.2 µM (inactive); in the assay with ACHN it was 8.77 µM (inactive); in the assay with CCRF-CEM, 1.49 µM (inactive); with DU-145, 9.44 µM (inactive); with HOP-62, 16.4 µM (inactive). The GI50 with MDA-MB-231 was 12.8 µM (inactive); in the assay on Malme-3M, 4.49 µM (inactive); with NCI-H226, 3.42 µM (inactive); in the assay with NCI-H460, 13.2 µM (inactive); in the assay with NCI-H522 it was 2.64 µM (inactive); in the assay with NCI/ADR-RES, 6.3 µM (inactive). The GI50 in the assay with OVCAR-3 was 12.3 µM (inactive); in the assay with OVCAR-5 it was 14.5 µM (inactive); in the assay on OVCAR-8, 0.791 µM (active); in the assay with SK-MEL-28, 13.6 µM (inactive); in the assay on SNB-19, 15 µM (inactive); in the assay with SR, 2.67 µM (inactive). For the same compound, the GI50 with TK-10 is 11.5 µM (inactive); in the assay on U-251 it was 13.6 µM (inactive).
`COc1ccc(OC)c2c1C[C@@H]1C(C#N)N3[C@H](Cc4c(OC)ccc(OC)c4[C@@H]3C)C(=O)N1[C@H]2C` (some centres not stated): the GI50 with A498 was 11.2 µM (inactive); in the assay with A549 it was 9.53 µM (inactive); in the assay on ACHN, 2.8 µM (inactive); in the assay on CCRF-CEM it was 1.9 µM (inactive); with DU-145, 22.4 µM (inactive); with HOP-62, 22.5 µM (inactive). In addition, the GI50 in the assay on MDA-MB-231 is 2.08 µM (inactive); with Malme-3M, 2.87 µM (inactive); in the assay with NCI-H226, 13.5 µM (inactive); in the assay with NCI-H460, 7.85 µM (inactive); with NCI-H522, 1.68 µM (inactive); with NCI/ADR-RES it was 4.12 µM (inactive). The GI50 in the assay on OVCAR-3 is 2.07 µM (inactive); with OVCAR-5 it was 8.09 µM (inactive); with OVCAR-8 it was 2.38 µM (inactive); in the assay on SK-MEL-28, 3.03 µM (inactive); with SNB-19, 2.15 µM (inactive); in the assay with SR, 2.15 µM (inactive). Also, the GI50 was 3.57 µM (inactive) in the assay on TK-10 and 2.26 µM (inactive) with U-251.
Regarding `CCCCCCCCCCCCC1NC(=N)NC2(CCCO2)C1C(=O)OC` (configuration not stated), the GI50 in the assay with A498 is 23.3 µM (inactive); in the assay with A549 it was 13.1 µM (inactive); in the assay with ACHN, 10.4 µM (inactive); with CCRF-CEM it was 2.06 µM (inactive); with DU-145, 15.3 µM (inactive); in the assay with HOP-62, 7.18 µM (inactive). For the same compound, the GI50 in the assay on MDA-MB-231 is 4.12 µM (inactive); in the assay on Malme-3M, 2.23 µM (inactive); in the assay on NCI-H226, 14.6 µM (inactive); in the assay on NCI-H460, 2.99 µM (inactive); with NCI-H522, 3.45 µM (inactive); with NCI/ADR-RES, 17.6 µM (inactive). The GI50 with OVCAR-3 is 3.52 µM (inactive); in the assay with OVCAR-5 it was 8.17 µM (inactive); with OVCAR-8 it was 4.68 µM (inactive); in the assay on SK-MEL-28 it was 5.52 µM (inactive); in the assay with SNB-19, 2.76 µM (inactive); in the assay on SR, 2.33 µM (inactive). In addition, the GI50 with TK-10 is 4.79 µM (inactive); in the assay with U-251, 1.64 µM (inactive).
For the compound `CC1(C)C(CBr)=[N+]([O-])C(C)(C)N1O`, the GI50 was > 10 µM (inactive) with A498; > 10 µM (inactive) in the assay on A549; 3.68 µM (inactive) in the assay with ACHN; 0.604 µM (active) in the assay on CCRF-CEM; > 10 µM (inactive) in the assay on DU-145; > 10 µM (inactive) with HOP-62. For the same compound, the GI50 in the assay on MDA-MB-231 is > 6.76 µM (inactive); in the assay with Malme-3M, 2.49 µM (inactive); in the assay with NCI-H226, > 10 µM (inactive); with NCI-H460 it was > 10 µM (inactive); with NCI-H522, 1.44 µM (inactive); with NCI/ADR-RES, > 7.24 µM (inactive). The GI50 is 3.32 µM (inactive) with OVCAR-3; > 10 µM (inactive) in the assay with OVCAR-5; > 6.97 µM (inactive) in the assay with OVCAR-8; > 10 µM (inactive) with SK-MEL-28; > 10 µM (inactive) in the assay with SNB-19; > 3.74 µM (inactive) in the assay on SR. Besides, the values for the GI50 in the assay with TK-10 and in the assay on U-251 were 5.5 µM (inactive) and > 10 µM (inactive), respectively.
As for `O=[N+]([O-])c1ccc2[nH]nc(OCc3ccccc3Cl)c2c1`, the GI50 with A498 is 37.5 µM (inactive); with A549 it was 39.4 µM (inactive); with ACHN, 19.8 µM (inactive); in the assay on CCRF-CEM, > 100 µM (inactive); in the assay with DU-145, 50.7 µM (inactive); in the assay on HOP-62 it was 37.8 µM (inactive). Further, the GI50 in the assay on MDA-MB-231 was > 100 µM (inactive); in the assay on Malme-3M, 98.9 µM (inactive); in the assay with NCI-H226 it was 68.5 µM (inactive); in the assay on NCI-H460, 35.5 µM (inactive); in the assay with NCI-H522, 17.1 µM (inactive); in the assay on NCI/ADR-RES it was 25 µM (inactive). Besides, the GI50 in the assay with OVCAR-3 was 23.4 µM (inactive); in the assay on OVCAR-5 it was 52.6 µM (inactive); in the assay on OVCAR-8, 27 µM (inactive); with SK-MEL-28, > 100 µM (inactive); in the assay on SNB-19, 34.7 µM (inactive); in the assay on SR, > 100 µM (inactive). Besides, the GI50 is 29.9 µM (inactive) in the assay on TK-10 and 28.3 µM (inactive) in the assay with U-251.
On to `Clc1ccc(Cc2nc3cc(CCN4CCN(c5ccccc5)CC4)ccc3[nH]2)cc1`, for which the GI50 was 14.4 µM (inactive) in the assay on A498; 13.4 µM (inactive) in the assay with A549; 19.5 µM (inactive) in the assay with ACHN; > 100 µM (inactive) in the assay on CCRF-CEM; 17.4 µM (inactive) with DU-145; 15.4 µM (inactive) with HOP-62. The GI50 in the assay with MDA-MB-231 was 13 µM (inactive); in the assay with Malme-3M, 15.7 µM (inactive); in the assay on NCI-H226, 22.5 µM (inactive); with NCI-H460, 12.9 µM (inactive); in the assay with NCI-H522, 14.1 µM (inactive); in the assay on NCI/ADR-RES it was 19.1 µM (inactive). Further, the GI50 in the assay on OVCAR-3 is 13 µM (inactive); with OVCAR-5, 26.1 µM (inactive); in the assay on OVCAR-8 it was 17 µM (inactive); in the assay with SK-MEL-28 it was 19.1 µM (inactive); with SNB-19 it was 20.7 µM (inactive); in the assay on SR, 8.02 µM (inactive). Moreover, the figures for the GI50 in the assay on TK-10 and in the assay with U-251 were 12.8 µM (inactive) and 13 µM (inactive), respectively.
Regarding `Oc1cc(-c2ccc3ccccc3c2)nc2ncccc12`, the GI50 was 7.23 µM (inactive) with A498; 4.68 µM (inactive) in the assay on A549; 31.9 µM (inactive) with ACHN; 7.64 µM (inactive) in the assay on CCRF-CEM; 19.9 µM (inactive) in the assay on DU-145; 21.7 µM (inactive) in the assay with HOP-62. Besides, the GI50 with MDA-MB-231 is 9.02 µM (inactive); with Malme-3M, 13.1 µM (inactive); in the assay with NCI-H226, 23 µM (inactive); with NCI-H522, 4.02 µM (inactive); with NCI/ADR-RES it was 4.4 µM (inactive); in the assay with OVCAR-5, 31.3 µM (inactive). Besides, the GI50 in the assay with OVCAR-8 is 23 µM (inactive); with SK-MEL-28 it was 8.63 µM (inactive); in the assay on SNB-19, 17.8 µM (inactive); with SR, 2.14 µM (inactive); in the assay with TK-10 it was 19.8 µM (inactive).
